Molecules are shown by their SMILES. Active and inactive are the calls of the source. No cut-off for these calls is given here. Where a SMILES comes first, the peptide text is derived from it. [ ]: non-standard residue; d: D form. Nle = CCCC[C@H](N)C(=O)O

The target in data set [1] is Amyloid-beta precursor protein (Homo sapiens) (UniProt P05067). Nature of the data set: Inhibition of amyloid beta 40 (unknown origin) aggregation assessed as reduction in fibril formation by measuring fluorescence intensity at 100 to 500 uM measured for 72 hrs by ThT flourescence assay. The note with it: dose 100-500 µM.
The target is the same in data set [2]. As to the kind of experiment: Inhibition of amyloid beta 40 (unknown origin) aggregation assessed as reduction in fibril formation by measuring fluorescence intensity at compound:Abeta40 concentration ratio of 1:5 and measured for 72 hrs by ThT flourescence assay relative to control.
The target is the same in data set [3]. As to the kind of experiment: Induction of amyloid beta 40 fibrils (unknown origin) disaggregation assessed as decrease in relative fluorescence intensity at 500 uM incubated for 24 hrs ThT flourescence assay relative to control. Details: scale not given: the % may be the effect or the level left.
Data set [4] shares this target. Nature of the data set: Inhibition of amyloid beta 42 (unknown origin) aggregation assessed as decrease in fibril formation by measuring fluorescence intensity and measured for 72 hrs by ThT flourescence assay.
Data set [5] deals with PC-12. As to the kind of experiment: Cytotoxicity against rat PC12 cells assessed as reduction in cell viability at 100 uM incubated for 24 hrs by MTT assay. The data set is classed as toxicity, cell-based. The note with it: pc-12, 24 h. (Tetrazolium assays rely on reduction of a dye to a coloured formazan, in cell work by metabolically active cells.)
The target of data set [6] is Amyloid-beta precursor protein (Homo sapiens) (UniProt P05067). Nature of the data set: Inhibition of amyloid beta 40 (unknown origin) aggregation assessed as assessed as decrease in oligomer formation by measuring decrease in oligomer-specific A11 antibody spots at 150 uM and measured for 48 hrs by Dot-Blot assay.
Data set [7] shares this target. Nature of the data set: Inhibition of amyloid beta 40 (unknown origin) aggregation assessed as assessed as decrease in fibril formation by measuring decrease in fibril-specific OC antibody spots at 150 uM and measured for 48 hrs by Dot-Blot assay.
For data set [8] the target is unchanged. As to the kind of experiment: Inhibition of amyloid beta 40 (unknown origin) aggregation assessed as decrease in […] conformation of protein secondary structure at 50 uM incubated for 24 hrs by Circular dichroism spectroscopy analysis. For orientation: Circular dichroism is the unequal absorption of left and right circularly polarised light.
For data set [9] the target is unchanged. Nature of the data set: Inhibition of amyloid beta 40 (unknown origin) aggregation assessed as reduction in fibril formation by measuring fluorescence intensity at compound:Abeta40 concentration ratio of 1:1 and measured for 72 hrs by ThT flourescence assay relative to control.
Data set [10] relates to PC-12. Nature of the data set: Neuroprotective activity against amyloid beta 40-induced cytotoxicity in rat PC12 cells assessed as increase in cell viability at compound:Abeta40 concentration ratio of 1:5 and incubated for 24 hrs by MTT assay relative to control. The data set is classed as functional.
In data set [11] the test system is Caenorhabditis elegans. Nature of the data set: Neuroprotective activity against transgenic Caenorhabditis elegans GMC101 Alzheimer's disease model expressing human amyloid beta 42 assessed as increase in fractional of unparalyzed worms at 5 uM (Rvb=51%). Type of data set: functional.
The test system of data set [12] is Caenorhabditis elegans. As to the kind of experiment: Neuroprotective activity against transgenic Caenorhabditis elegans CL2355 Alzheimer's disease model expressing human amyloid beta (1 to 42 residues) in neuron assessed as increase in motility by measuring bending frequency at 5 uM incubated for 36 hrs at 16 degreeC and 36 hrs at 23 degreeC (reference value: 72). The data set is classed as functional. The note with it: time 72 hrs.

For data set [13], the system named is Caenorhabditis elegans. As to the kind of experiment: Neuroprotective activity against transgenic Caenorhabditis elegans CL2355 Alzheimer's disease model expressing human amyloid beta (1 to 42 residues) in neuron assessed as increase in chemotaxis index at 50 uM incubated for 36 hrs at 16 degreeC and 36 hrs at 23 degreeC by Chemotaxis Assay (0.22. Type of data set: functional. The note with it: time 72 hrs.

Data set [14] has as its system PC-12. Nature of the data set: Neuroprotective activity against amyloid beta 40-induced cytotoxicity in rat PC12 cells assessed as increase in cell viability at compound:Abeta40 concentration ratio of 1:1 and incubated for 24 hrs by MTT assay relative to control. Type of data set: functional, cell-based.
The target of data set [15] is Amyloid-beta precursor protein (Homo sapiens) (UniProt P05067). As to the kind of experiment: Inhibition of amyloid beta 40 (unknown origin) self aggregation assessed as change in fibril morphology at 500 uM incubated for 72 hrs by TEM analysis.
Data set [16] has as its system Caenorhabditis elegans. As to the kind of experiment: Neuroprotective activity in transgenic Caenorhabditis elegans GMC101 Alzheimer's disease model overexpressing human amyloid beta (1 to 42 residues) in body-wall muscle assessed as reduction in fibril-specific […] antibody spots incubated for 48 hrs by immunochemical dot-blot analysis. Type of data set: functional, organism-based.

In data set [17] the test system is Caenorhabditis elegans. As to the kind of experiment: Neuroprotective activity in transgenic Caenorhabditis elegans GMC101 Alzheimer's disease model overexpressing human amyloid beta (1 to 42 residues) in body-wall muscle assessed as delay in amyloid beta 42-induced paralysis at 5 to 50 uM incubated for 48 hrs. The note with it: dose 5-50 µM. The data set is classed as functional, organism-based.

For data set [18], the system named is Caenorhabditis elegans. As to the kind of experiment: Neuroprotective activity in transgenic Caenorhabditis elegans GMC101 Alzheimer's disease model expressing human amyloid beta (1 to 42 residues) in body-wall muscle assessed as increase in fraction of unparalyzed worms at 5 uM incubated for 48 hrs (Rvb= 56%). Type of data set: functional.
Data set [19] has as its system Caenorhabditis elegans. Nature of the data set: Neuroprotective activity against wild type Caenorhabditis elegans CL2122 assessed as delay in amyloid beta 42-induced paralysis at 50 uM incubated for 48 hrs. The data set is classed as functional, organism-based.
The subject of data set [20] is Caenorhabditis elegans. Nature of the data set: Neuroprotective activity against transgenic Caenorhabditis elegans CL2355 Alzheimer's disease model expressing human amyloid beta (1 to 42 residues) in neuron assessed as increase in motility at 5 to 50 uM incubated for 36 hrs at 16 degreeC and 36 hrs at 23 degreeC. The data set is classed as functional, organism-based. The note with it: dose 5-50 µM, time 72.0 hrs.

In data set [21] the test system is Caenorhabditis elegans. Nature of the data set: Neuroprotective activity against transgenic Caenorhabditis elegans CL2355 Alzheimer's disease model expressing human amyloid beta (1 to 42 residues) in neuron assessed as increase in motility by measuring bending frequency at 5 uM incubated for 36 hrs at 16 degreeC and 36 hrs at 23 degreeC (reference value: 74). Type of data set: functional. The note with it: time 72 hrs.

The test system of data set [22] is Caenorhabditis elegans. Nature of the data set: Neuroprotective activity against transgenic Caenorhabditis elegans CL2355 Alzheimer's disease model expressing human amyloid beta (1 to 42 residues) in neuron assessed as neutralization of damaging effect of amyloid beta aggregation by measuring increase in chemotaxis index at 50 uM incubated for 36 hrs at 16 degreeC and 36 hrs at 23 degreeC by Chemotaxis Assay. The note with it: time 72.0 hrs. Type of data set: functional, organism-based.

Data set [23] has as its system Caenorhabditis elegans. As to the kind of experiment: Neuroprotective activity in transgenic Caenorhabditis elegans GMC101 Alzheimer's disease model overexpressing human amyloid beta (1 to 42 residues) in body-wall muscle assessed as reduction in oligomeric-specific A11 antibody spots incubated for 48 hrs by immunochemical dot-blot analysis. The data set is classed as functional, organism-based.

Data set [24] has as its system Caenorhabditis elegans. Nature of the data set: Neuroprotective activity in transgenic Caenorhabditis elegans GMC101 Alzheimer's disease model overexpressing human amyloid beta (1 to 42 residues) in body-wall muscle assessed as reduction in amyloid beta fibrils incubated for 48 hrs by Western blot analysis. The data set is classed as functional, organism-based. For orientation: A western blot detects proteins with antibodies after separation by electrophoresis.

Data set [25] has as its system Caenorhabditis elegans. Nature of the data set: Neuroprotective activity in transgenic Caenorhabditis elegans GMC101 Alzheimer's disease model overexpressing human amyloid beta (1 to 42 residues) in body-wall muscle assessed as reduction in amyloid beta oligomers incubated for 48 hrs by Western blot analysis. The data set is classed as functional, organism-based.

Data set [26] has as its system Caenorhabditis elegans. Nature of the data set: Neuroprotective activity against wild type Caenorhabditis elegans CL2122 assessed as motility changes by measuring worms bending frequency at 50 uM incubated for 36 hrs at 16 degreeC and 36 hrs at 23 degreeC. The data set is classed as functional, organism-based. The note with it: time 72.0 hrs.
For data set [27], the target named is Amyloid-beta precursor protein (Homo sapiens) (UniProt P05067). Nature of the data set: Inhibition of amyloid beta 42 (unknown origin) aggregation assessed as reduction in fibril formation by measuring fluorescence intensity at compound:Abeta42 concentration ratio of 1:5 and measured for 72 hrs by ThT flourescence assay relative to control.
The target is the same in data set [28]. Nature of the data set: Inhibition of amyloid beta 40 (unknown origin) self aggregation assessed as decrease in fibril formation at 500 uM incubated for 72 hrs by TEM analysis.

Amyloid-beta precursor protein (Homo sapiens), sequence (P05067 whole entry, the tested form may be a part): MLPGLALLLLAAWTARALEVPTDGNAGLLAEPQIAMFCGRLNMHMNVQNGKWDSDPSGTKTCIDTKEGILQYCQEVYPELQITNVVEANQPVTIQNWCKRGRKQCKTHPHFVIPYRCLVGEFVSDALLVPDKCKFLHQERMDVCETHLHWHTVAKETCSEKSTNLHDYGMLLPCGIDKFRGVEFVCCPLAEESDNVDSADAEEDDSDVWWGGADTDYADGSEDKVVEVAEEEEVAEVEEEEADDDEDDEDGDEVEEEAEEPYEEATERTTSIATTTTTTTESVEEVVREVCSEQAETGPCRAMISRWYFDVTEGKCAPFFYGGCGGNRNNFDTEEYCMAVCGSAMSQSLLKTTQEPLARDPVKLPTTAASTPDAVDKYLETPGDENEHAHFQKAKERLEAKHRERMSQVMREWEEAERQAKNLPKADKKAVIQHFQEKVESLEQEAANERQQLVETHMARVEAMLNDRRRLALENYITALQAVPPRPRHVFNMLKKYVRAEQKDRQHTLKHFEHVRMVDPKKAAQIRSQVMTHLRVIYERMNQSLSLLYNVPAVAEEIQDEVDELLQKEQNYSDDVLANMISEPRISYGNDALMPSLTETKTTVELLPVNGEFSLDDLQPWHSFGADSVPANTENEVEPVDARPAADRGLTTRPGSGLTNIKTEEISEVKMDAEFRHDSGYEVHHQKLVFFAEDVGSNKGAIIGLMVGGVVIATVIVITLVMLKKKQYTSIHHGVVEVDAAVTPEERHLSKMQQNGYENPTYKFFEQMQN

Consider `CCCC[C@@H]1NC(=O)[C@@H](CC(C)C)NC(=O)[C@H](CCCCN)NC(=O)[C@@H](CO)NC(=O)[C@H](Cc2c[nH]cn2)NC(=O)N(Cc2cc3ccccc3[nH]2)NC1=O`, for which the inhibition result in [1] and in data set [2] was “Active” throughout. Moreover, the Activity in data set [3] is less than 50%; with PC-12 [5], “Toxic”. In addition, the inhibition result in data set [4], in [6], in [7] and in [8] was “inactive” in each case.

On to `CCCC[C@@H]1NC(=O)[C@@H](CC(C)C)NC(=O)[C@H](CCCCN)NC(=O)[C@@H](CO)NC(=O)[C@H](Cc2c[nH]cn2)NC(=O)[C@@H](Cc2c[nH]c3ccccc23)NC1=O` (cyclo(K[dL][Nle][dW]H[dS])), for which the values for the inhibition in data set [2] and in data set [9] were 89% and 50%, respectively. For the same molecule, the Activity is 33% in data set [3]; 88% in the data set with PC-12 [10]; “Non-Toxic” in the data set with PC-12 [5]; 86% with Caenorhabditis elegans [11]; 82 in the data set with Caenorhabditis elegans [12]; 0.32 with Caenorhabditis elegans [13].

As to `CCCC[C@@H]1NC(=O)[C@@H](CC(C)C)NC(=O)[C@H](CCCCN)NC(=O)N(CCO)NC(=O)[C@H](Cc2c[nH]cn2)NC(=O)[C@@H](Cc2c[nH]c3ccccc23)NC1=O` (racemic), the inhibition entry in data set [1], in data set [2], in data set [4], in data set [15] and in data set [6] was “Active” each time. Besides, the Activity is less than 50% in data set [3]; more than 90% in the data set with PC-12 [10]; “Non-Toxic” in the data set with PC-12 [5]; “Dose-Dependent Effect” in the data set on Caenorhabditis elegans [17]; 60% with Caenorhabditis elegans [18]; “Dose-Dependent Effect” in the data set with Caenorhabditis elegans [20]. Besides, the Activity in the data set on Caenorhabditis elegans [21] was determined as 79. In addition, the result in the data set on PC-12 [14], in the data set with Caenorhabditis elegans [16], with Caenorhabditis elegans [22], with Caenorhabditis elegans [23], with Caenorhabditis elegans [24] and with Caenorhabditis elegans [25] was Active. In addition, the outcome with Caenorhabditis elegans [19] and in the data set with Caenorhabditis elegans [26] was inactive. The inhibition (usually how much of the control response was suppressed) in data set [8] stood at 60%.

Turning to `CCCC[C@@H]1NC(=O)[C@@H](CC(C)C)NC(=O)N(CCCCN)NC(=O)[C@@H](CO)NC(=O)[C@H](Cc2c[nH]cn2)NC(=O)[C@@H](Cc2c[nH]c3ccccc23)NC1=O` (racemic), the inhibition result in data set [1], in data set [4], in [15], in data set [6] and in data set [8] was “Active” in each case. Further, the inhibition result in data set [2] and in [9] was “inactive” each time. Moreover, the Activity was less than 50% in data set [3], more than 90% in the data set on PC-12 [10] and “Non-Toxic” with PC-12 [5]. Moreover, the outcome in the data set on PC-12 [14] was Active.

`CCCC[C@@H]1NC(=O)N(CC(C)C)NC(=O)[C@H](CCCCN)NC(=O)[C@@H](CO)NC(=O)[C@H](Cc2c[nH]cn2)NC(=O)[C@@H](Cc2c[nH]c3ccccc23)NC1=O` (racemic): the inhibition result in [1] and in [8] was “Active” throughout. The inhibition result in [2], in data set [9], in data set [6] and in data set [7] was “inactive” in each case. Further, the Activity is 72% in [3] and “Toxic” in the data set with PC-12 [5].

With `CCCC[C@@H]1NC(=O)[C@@H](CC(C)C)NC(=O)[C@H](CCCCN)NC(=O)[C@@H](CO)NC(=O)N(Cc2c[nH]nn2)NC(=O)[C@@H](Cc2c[nH]c3ccccc23)NC1=O` (racemic), the inhibition result in [1], in [2], in data set [4], in data set [6] and in data set [7] was “Active” each time. The values for the Activity (in data set [3]; in the data set with PC-12 [10]; with PC-12 [5]) were less than 50%, more than 90% and “Non-Toxic”, respectively. Further, the inhibition in data set [8] amounted to 60%.

For the molecule `CCCCN1NC(=O)[C@@H](CC(C)C)NC(=O)[C@H](CCCCN)NC(=O)[C@@H](CO)NC(=O)[C@H](Cc2c[nH]cn2)NC(=O)[C@@H](Cc2c[nH]c3ccccc23)NC1=O` (racemic), the inhibition entry in data set [1], in [4], in [28], in data set [6] and in [7] was “Active” throughout. The inhibition in data set [2] was 88%; in [9] it was 93%; in [27], 87.6%. Moreover, the Activity in [3] is less than 50%; with PC-12 [10] it was more than 90%; in the data set with PC-12 [5] it was “Non-Toxic”; with Caenorhabditis elegans [17], “Dose-Dependent Effect”; in the data set on Caenorhabditis elegans [18], 76%; in the data set on Caenorhabditis elegans [20], “Dose-Dependent Effect”. In the data set on Caenorhabditis elegans [21], the Activity was determined as 79. Besides, the outcome in the data set with PC-12 [14], with Caenorhabditis elegans [16], with Caenorhabditis elegans [22], with Caenorhabditis elegans [23], with Caenorhabditis elegans [24] and with Caenorhabditis elegans [25] was Active. Besides, the outcome in the data set with Caenorhabditis elegans [19] and in the data set on Caenorhabditis elegans [26] was inactive. Moreover, the inhibition result in data set [8] was “inactive”.
